From US12396996B2, “Compounds, pharmaceutical compositions, and methods of their use in reversing cancer chemoresistance” (priority 2019, dated 2025)

Experiments:
800 cancer cell lines = assay: Cell viability screen with GSEA of mesenchymal gene signature; format: cell-based; conditions: 0.005-1.28 μM, viability several days after treatment
Protocol: FIGS. 1D-1E are a series of scatter plots showing the results of a Gene Set Enrichment Analysis (GSEA) screen of 800 cancer cell lines for sensitivity to chaetocin applied at 9 different concentrations (0.005 μM, 0.01 μM, 0.02 μM, 0.04 μM, 0.08 μM, 0.16 μM, 0.32 μM, 0.64 μM, and 1.28 μM) in culture. Cell viability was measured several days after chaetocin treatment. FIG. 1D is a scatter plot showing the chaetocin sensitivity of all tested cells lines: mesenchymal gene expression signature (SNAIL-induced early-repressed gene set) (Y-axis) is plotted against area under the curve (AUC) calculated by measuring percent cell death caused by increasing doses of chaetocin (X-axis). Mesenchymal gene expression signature (SNAIL-induced early-repressed gene set) used in the Y-axis was based on the Javaid et al 2013 paper.
To determine whether sensitivity of cancer cells to chaetocin correlates with mesenchymal cell phenotype, the sensitivity or resistance of 800 cancer cell lines to chaetocin was assayed by the group of Cyril Benes treating each cell line with chaetocin at concentrations of 0.005 μM, 0.01 μM, 0.02 μM, 0.04 μM, 0.08 μM, 0.16 μM, 0.32 μM, 0.64 μM, and 1.28 μM. Cell viability was measured several days following treatment. […]

HMLE-SNAIL spheroids = assay: 3-D tumor spheroid assay (Sytox/DAPI staining); format: cell-based, human; conditions: Sytox staining
Excerpt: FIGS. 1F-1I show the results of a 3-D tumor spheroid assay formed by the chemotherapy-resistant breast cancer cell line, HMLE-SNAIL. […] Tumor spheroids are a model of real in vivo tumors, as they form a 3-D cell mass in which the hypoxic and often nutrient depleted microenvironment at the center of the tumor is enriched with mesenchymal, chemotherapy-resistant TIC cells. […] By staining spheroids with Sytox, which stains dead cells green, and DAPI, which stains the nuclei of all cells (living or dead), total fraction of dead cells is calculated. Also, the location of dead cells within the sphere is visualized with Sytox (green) staining. The results of FIGS. 1F-1I indicate that chaetocin a selective and potent killer of inner cells of the spheroids, enriched with mesenchymal, chemotherapy-resistant TIC cells, compared to other compounds tested. FIGS. 1J-1K show the results of a tumorsphere assay performed with TICs grown on serum-free, non-adherent culture conditions. […] The results of FIGS. 1J-1K indicate that chaetocin is effective in eliminating TICs in a dose dependent-manner.
To determine whether chaetocin affects TIC death in a tumor-like environment, 3-D tumor spheroid assays were performed in the presence or absence of chaetocin. Tumor spheroids are a model of a real tumor, as they form a 3-D cell mass similar to tumors in vivo. The local microenvironment of a spheroid recapitulates many of the in vivo properties of tumor. Importantly, the hypoxic and often nutrient depleted microenvironment at the center of the tumor is favorable for converting epithelial, non-TIC, chemotherapy-sensitive cancer cells into mesenchymal, TIC-rich, chemotherapy-resistant cells. […] Pharmacological agents were added and cell viability was calculated by staining cells with Sytox, which stains dead cells green, and DAPI, which stains the nuclei of all cells (living or dead). to provide the total cell number. Using this method, the total fraction of dead cells was calculated and compared between different drug conditions. More importantly, the location of dead cells within the sphere is visualized with Sytox (green) staining. FIGS. 1G-1I show fluorescence images of tumor spheroids under control conditions (no treatment; FIG. 1G), under treatment with various experimental chemotherapeutic agents (Y-27632, LY-450139, and IWP-L6 (Wnt); FIG. 1H), and with chaetocin treatment (FIG. 1I). […] This family of kinases are thought to be important for survival of TIC cells. IWP-L6 is an inhibitor of Wnt pathway—a pathway important for TIC cell survival and formation. LY-450139 is a NOTCH pathway inhibitor. NOTCH is also important for TIC cell viability and survival. […]

HMLE-TWIST cells [1] = conditions: 0.3 μM, 15 hours, versus untreated
Protocol: To determine whether the transcriptional changes associated with chaetocin treatment support this apparent change in cell state (reversal of mesenchymal fate), RNA-seq experiments were performed on cells treated for 15 hours with 0.3 μM of chaetocin after which total RNA was extracted and subjected to deep sequencing.

HMLE-TWIST cells [2] = assay: CD44/CD24 FACS analysis after chaetocin pulse and washout; format: cell-based, human
Protocol: Cultured mesenchymal, TIC-rich HMLE-TWIST cells were treated with increasing concentrations of chaetocin for 2 days, washed and then incubated in chaetocin-free media for two days. CD44/CD24 FACS analyses were performed either immediately or two days after chaetocin removal.
CD44/CD24 FACS analyses either were performed either immediately or 6 days after chaetocin removal.
To determine whether a short pulse of the Suv39H1/H2 inhibitor, chaetocin, is sufficient to bring about an epigenetic change, cultured HMLE-TWIST cells (also referred to as ‘HMLE-TWIST TICs’ or ‘TICs’) were exposed to different doses of chaetocin for two days, followed by washout, and replacement with regular media. Cells were tracked for their phenotypic fate (e.g., CD44/CD24 marker expression) for another two or 6 days in chaetocin-free media. In this cell line, high CD44 and low CD24 expression indicate TIC cell populations. Cells that express CD24 are considered non-TICs. […] Next, to determine whether the epigenetic change persists for periods longer than two days, a separate experiment was performed in which HMLE-TWIST cells were treated with chaetocin for two days, followed by FACS analysis of CD24/CD44 expression either immediately after or 6 days after, as schematized in the top panel of FIG. 3M.

HMLE-TWIST cells [3] = conditions: 20, 50, 100 nM for 5 or 15 hours, two days chaetocin-free, then doxorubicin
Protocol: Doxorubicin was added after two days and cell death was assayed with cleaved caspase-3 intensity.
To determine if EMT reversal with chaetocin can sensitize TIC-rich breast cancer cells, namely HMLE-TWIST cells, to conventional chemotherapeutic agents, cells were treated for 5 or 15 hours with different concentrations of chaetocin (20 nM, 50 nM, and 100 nM), as is schematized in FIG. 4A. Cells were then washed and incubated in chaetocin-free media for two days. Doxorubicin was then added, and cell death was assayed using FACS analysis of caspase-3 cleavage two days after doxorubicin addition.
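Wherever Log2foldChange ALDH1A1 is given: transcript levels measured by RNA-seq of total RNA extracted from treated cells, given as log2 change relative to untreated cells.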
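Wherever Log2foldChange BIRC5 (survivin-1) is given: transcript levels measured by RNA-seq of total RNA extracted from treated cells, given as log2 change relative to untreated cells.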
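Wherever Log2foldChange CD24 is given: transcript levels measured by RNA-seq of total RNA extracted from treated cells, given as log2 change relative to untreated cells.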
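Wherever Log2foldChange CDH1 (E-cadherin) is given: transcript levels measured by RNA-seq of total RNA extracted from treated cells, given as log2 change relative to untreated cells.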

Structure (SMILES): CN1C(=O)[C@@]23C[C@]4([C@]56C[C@@]78SS[C@](CO)(C(=O)N7[C@H]5Nc5ccccc56)N(C)C8=O)c5ccccc5N[C@@H]4N2C(=O)[C@@]1(CO)SS3 [chaetocin]
- sensitivity (AUC of percent cell death) versus mesenchymal gene signature (800 cancer cell lines): cells with mesenchymal transcriptional signature are sensitive to chaetocin
- location of dead cells within spheroid (HMLE-SNAIL spheroids): preferentially and effectively kills the inner spheroid cells
- Log2foldChange ALDH1A1 (HMLE-TWIST cells [1]): −2.01
- Log2foldChange BIRC5 (survivin-1) (HMLE-TWIST cells [1]): 0.491
- Log2foldChange CD24 (HMLE-TWIST cells [1]): −0.912
- Log2foldChange CDH1 (E-cadherin) (HMLE-TWIST cells [1]): 4.25
- Log2foldChange CLDN2 (HMLE-TWIST cells [1]): 6.00
- Log2foldChange CLDN4 (HMLE-TWIST cells [1]): 3.68
- Log2foldChange CLDN6 (HMLE-TWIST cells [1]): 7.30
- Log2foldChange CLDN9 (HMLE-TWIST cells [1]): 4.59
- Log2foldChange CLDN16 (HMLE-TWIST cells [1]): 2.77
- Log2foldChange CLDN23 (HMLE-TWIST cells [1]): 1.18
- Log2foldChange COL2A1 (HMLE-TWIST cells [1]): 4.34
- Log2foldChange CRB1 (HMLE-TWIST cells [1]): 9.40
- Log2foldChange CST6 (HMLE-TWIST cells [1]): 2.12
- Log2foldChange Errb2 (HMLE-TWIST cells [1]): −0.829
- Log2foldChange GJA1 (HMLE-TWIST cells [1]): −0.627
- Log2foldChange GLI-2 (HMLE-TWIST cells [1]): −0.941
- Log2foldChange KRT7 (HMLE-TWIST cells [1]): 1.59
- Log2foldChange KRT8 (HMLE-TWIST cells [1]): 1.30
- Log2foldChange KRT18 (HMLE-TWIST cells [1]): 1.95
- Log2foldChange KRT19 (HMLE-TWIST cells [1]): 4.46
- Log2foldChange KRT34 (HMLE-TWIST cells [1]): 5.49
- Log2foldChange KRT80 (HMLE-TWIST cells [1]): 1.24
- Log2foldChange KRT81 (HMLE-TWIST cells [1]): 1.47
- Log2foldChange KRT86 (HMLE-TWIST cells [1]): 3.10
- Log2foldChange LAMB1 (HMLE-TWIST cells [1]): −1.05
- Log2foldChange MMP14 (HMLE-TWIST cells [1]): −1.14
- Log2foldChange NRF-2 (HMLE-TWIST cells [1]): −0.862
- Log2foldChange Nanog (HMLE-TWIST cells [1]): −2.21
- Log2foldChange O ct4 (HMLE-TWIST cells [1]): −1.76
- Log2foldChange PTEN (HMLE-TWIST cells [1]): −0.780
- Log2foldChange SNAI2 (HMLE-TWIST cells [1]): −0.623
- Log2foldChange TWIST1 (HMLE-TWIST cells [1]): −0.549
- Log2foldChange WISP1 (HMLE-TWIST cells [1]): −1.06
- Log2foldChange ZEB1 (HMLE-TWIST cells [1]): −0.666
- CD44/CD24 phenotype (TIC to non-TIC) (HMLE-TWIST cells [2]; 0.1, 0.15, 0.2, 0.5 μM for two days, immediately after treatment): converts TICs into non-TICs in a dose dependent manner
- persistence of TIC to non-TIC conversion (HMLE-TWIST cells [2]; two or 6 days in chaetocin-free media): persist for up to six days after chaetocin removal
- reversal of resistance to doxorubicin (caspase-3 cleavage) (HMLE-TWIST cells [3]): reverses chemotherapy resistance of mesenchymal, TIC-rich HMLE-TWIST cells to doxorubicin
